{"source": "patent US10555959B2", "about": "“Glycolipids as treatment for disease” (La Jolla Pharmaceutical Company, priority 2009, dated 2020)", "key": {"[1]": {"system": "melanoma", "conditions": "cited from earlier work"}, "[2]": {"system": "mouse cortical cells", "assay": "Protection of cortical cells from apoptosis (hydrogen peroxide, MTT assay)", "assay_type": "cell-based", "conditions": "approx. 0.1 μM; 50 μM hydrogen peroxide; cell death by MTT assay", "description": "To induce apoptosis, mouse cortical cells were cultured and treated with 50 μM hydrogen peroxide for three hours prior to being treated with the ganglioside analogue.\nThe cells were also treated with the hydrogen peroxide during treatment with the ganglioside analogue and post-treatment for 48 h. Cell death was assayed using the MTT assay."}, "[3]": {"system": "C57B1/6 mice treated with MPTP", "assay": "Animal model of Parkinson's and atypical Parkinson's disease (MPTP)", "assay_type": "in vivo, mouse", "conditions": "daily administration for three weeks", "description": "C57B1/6 mice 7-8 weeks of age can be treated with MPTP (b.i.d., 20 mg/kg, s.c.). The mice also receive a daily administration of saline, compound of formula (1), (2), (3), (4), (5), (6), (7), (8), (9) or (10) (1, 10 and 30 mg/kg, o.s.) or (0.3. to 3 mg/kg, i.p. or s.c.) for three weeks starting 24 h after the last MPTP injection. The brains are removed and analyzed for striatum and substantia nigra pars compacta dopamine levels. The midbrain is fixed for TH immunohistochemistry and dopamine neuron cell counts."}, "[4]": {"system": "SUR-1−/− Mice", "conditions": "cited from earlier work"}, "[5]": {"system": "KATP channels", "conditions": "in vitro; by activation of the KATP channels; ceramide fatty acid of C16:0; cited from earlier work"}, "[6]": {"system": "human adippose tissue", "conditions": "human adipose tissue, in vitro; cited from earlier work"}}, "data": [{"substance": "Neu5Ac8Neu5Ac3Gal3GalNAc4(Neu5Ac8Neu5c3)Gal4GlcCer [GQ1b]", "values": [{"measurement": "growth of melanoma", "setting": "[1]", "result": "suppress"}]}, {"substance": "Neu5Ac3Gal3GalNAc4(Neu5Ac8Neu5Ac3)Gal4GlcCer [GT1b]", "values": [{"measurement": "growth of melanoma", "setting": "[1]", "result": "suppress"}]}, {"substance": "Gal3GalNAc4(Neu5Ac3)Gal4GlcCer [GM1]", "values": [{"measurement": "protection of the cells from apoptosis", "setting": "[2]", "result": "approximately 20%"}, {"measurement": "striatal dopamine levels", "setting": "[3]", "result": "increase striatal dopamine levels to approximately the same extent"}]}, {"substance": "Gal3GalNAc4(Neu5Ac8Neu5Ac3)Gal4GlcCer [GD1b]", "values": [{"measurement": "growth of melanoma", "setting": "[1]", "result": "suppress"}]}, {"substance": "Exendin-(9-39)", "values": [{"measurement": "fasting blood glucose levels", "setting": "[4]", "result": "Significantly Raises"}]}, {"substance": "sulfatide", "values": [{"measurement": "glucose stimulation of insulin secretion", "setting": "[5]", "result": "inhibited"}, {"measurement": "expression of adiponectin", "setting": "[6]", "result": "increased"}, {"measurement": "levels of IL-6", "setting": "[6]", "result": "decreasing"}, {"measurement": "levels of IL-8", "setting": "[6]", "result": "decreasing"}, {"measurement": "levels of TNF-alpha", "setting": "[6]", "result": "decreasing"}]}]}
